According to patent publication US6458026B1, “Integrin-targeting vectors having transfection activity” (ICH Productions Limited, priority 1997, dated 2002):
Like-named read-outs stand apart in the source and are kept apart here.

Legend:
[1] = tested on: integrins; details: cited from earlier work
[2] = tested on: human lung fibroblasts (HFL-1 cells); test: Antisense transfection: thrombin-induced proliferation of HFL-1 cells; type: cell-based; details: thrombin-treated cells
Protocol: Thrombin stimulates proliferation of human lung fibroblasts. Thrombin-treated human lung fibroblasts (HFL-1 cells) proliferated 53% in response to thrombin. 24 hours before treatment with thrombin, HFL-1 cells were treated with an LID complex comprising [K]16-peptide 6, lipofectin and a 20-mer antisense oligonucleotide directed against the thrombin receptor PAR-1 in the optimal ratio and mixing order prepared as described in the Materials and Methods section and the Examples above. The antisense oligonucleotide-containing complex was in contact with the cells for 4 hours. 24 hours after the start of the treatment with the complex, treatment with thrombin was carried out.

| Substance | integrin specificity [1] | integrin specificity ([1]; listed as peptide 5) | proliferation in response to thrombin [2] |
| --- | --- | --- | --- |
| GACDCRGDCFCA [Peptide 5] | Peptide 5 (αv) | has high affinity for integrin αv but is not αv-specific | – |
| GACRGDMFGCA [Peptide 1] | has affinity for α5 and αv integrins but is non-specific | – | – |
| GACRRETAWACG [Peptide 6] | α5β1-specific | – | – |
| thrombin | – | – | 53% |
